Laboratory results from patent US20240423981A1, “TREATMENT OF HCM WITH PYRIMIDINEDIONE COMPOUNDS” (MyoKardia, Inc., priority 2017, published 2024).

System: subjects with symptomatic HCM and LVOT obstruction
Assay: Phase 2 open-label pilot study Pioneer-HCM-B (Cohort B)
Assay type: in vivo, human
Experimental: This trial was similar to the trial described in Example 3, but will have several important differences. For example, subjects in the Phase 2-B trial will not be required to discontinue their β-blocker therapy, and the dose of Compound 1 will be reduced to 2 to 5 mg.
The following results were obtained generally following the procedures described in Example 3 and Example 5.

[1] = 2 mg/day for 4 weeks, preliminary
[2] = Cohort B (2-5 mg daily doses), mean ± SD
[3] = Cohort B, baseline to Week 12, n 10

CC(C)n1c(=O)cc(N[C@@H](C)c2ccccc2)[nH]c1=O [Compound 1, (S)-3-Isopropyl-6-((1-phenylethyl)amino) pyrimidine-2, 4(1H,3H)-dione]
LV filling pressure and diastolic peak mitral annular velocity (2 mg/day for 4 weeks, absence of a change in afterload): beneficial effects on LV filling pressure (↓E/e′ and NTpro-BNP) and in diastolic peak mitral annular velocity (e′)
LV systolic function at rest and immediately post-exercise [1]: not affected
effect on LVOT rest and exercise gradients [1]: consistent effect on LVOT rest and exercise gradients
NYHA functional class (12 weeks of Compound 1, 4 weeks of washout (FIG. 21)): improvement in NYHA functional class in individuals after 12 weeks and the reversal of improvement after 4 weeks of washout
patients with >1.5 mL/kg/min improvement in pVO2 (Cohort B): *5 of 10 patients had >1.5 mL/kg/mm improvement in pVO2
patients with improved NYHA Class (Cohort B): 8 of 10 and **Improved NYHA Class in 9 out of 10 patients
Resting Gradient Week 4 (Cohort B (2 mg/day), preliminary, mean ± SD, N 5, baseline 84 ± 76 (6)): 59 ± 61 mm Hg
Septal e′ Week 4 (Cohort B (2 mg/day), preliminary, mean ± SD, N 6, baseline 3.9 ± 1.1 (6)): 4.5 ± 1.4
Mean e′ Week 4 (Cohort B (2 mg/day), preliminary, mean ± SD, N 6, baseline 4.7 ± 1.0 (6)): 5.7 ± 1.3
Lateral e′ Week 4 (Cohort B (2 mg/day), preliminary, mean ± SD, N 6, baseline 5.4 ± 1.0 (6)): 7.0 ± 1.2
E/e′ Week 4 (Cohort B (2 mg/day), preliminary, mean ± SD, N 6, baseline 14.0 ± 3.4 (6)): 10.7 ± 3.5
Post-exercise Gradient Week 4 (Cohort B (2 mg/day), preliminary, mean ± SD, N 6, baseline 70 ± 45 (6)): 93 ± 56 mm Hg
Resting LVEF Week 4 (Cohort B (2 mg/day), preliminary, mean ± SD, N 6, baseline 71 ± 4 (6)): 73 ± 6%
Stroke Volume Week 4 (Cohort B (2 mg/day), preliminary, mean ± SD, N 6, baseline 73.3 ± 6.5 (6)): 77.8 ± 14.3 mL
Post-exercise LVEF Week 4 (Cohort B (2 mg/day), preliminary, mean ± SD, N 6, baseline 78 ± 9 (5)): 76 ± 3%
NT-pro BNP Week 4 (Cohort B (2 mg/day), preliminary, mean ± SD, N 7, baseline 2162 ± 3601 (8)): 1258 ± 1789 pg/mL
improvement in peak VO2 in 4 subjects (Cohort B (2-5 mg daily doses)): ≥ 2.9 mL/min/kg
Dyspnea numerical rating (signed change) [2]: −3.0 ± 2.8
NYHA Class (signed change) [2]: −1.0 ± 0.5
Peak VO2 (signed change) [2]: +1.67 ± 2.3 mL/kg/min
Post-exercise peak LVOT gradient (signed change) [2]: −25.0 ± 28.7 mmHg
Resting LVEF (signed change) [2]: −5.5 ± 6.0%
Resting LVOT gradient (signed change) [2]: −48.5 ± 48.0 mmHg
NT-proBNP Delta (Cohort B, baseline to Week 12, n 9): −1195 ± 2770
Dyspnea score Delta [3]: −3.0 ± 2.8
E/e′ Delta [3]: −1.3 ± 4.6
LA Vol (index) Delta [3]: −6 ± 12 mL/m^2
LVEDV Delta [3]: 6 ± 18
Lateral e′ Delta [3]: 0.3 ± 2.2 cm/s
Dyspnea score Week 12 (Cohort B, baseline 4.0 ± 2.6, n 10): 1.0 ± 0.7
Lateral e′ Week 12 (Cohort B, baseline 5.9 ± 1.0, n 10): 6.1 ± 2.1 cm/s
E/e′ Week 12 (Cohort B, baseline 13.9 ± 3.5, n 10): 12.6 ± 4.1
LA Vol (index) Week 12 (Cohort B, baseline 41 ± 20, n 10): 35 ± 12 mL/m^2
LVEDV Week 12 (Cohort B, baseline 95 ± 15, n 10): 101 ± 25
NT-proBNP Week 12 (Cohort B, baseline 1834 ± 3209, n 9): 826 ± 1063
peak VO2 (by week 12 (FIG. 23)): improvement in peak VO2 by week 12
dyspnea (throughout the trial, improvement reversed after 4 weeks of washout (FIG. 22)): rapid improvement in peak in dyspnea
